Values after ≈ are worked out from the molar mass of the structure shown. Bounds are passed on as bounds.

The conditions of this series: buffer; pH 7.4; 200.0 µM.
As to `Cc1ccc(S(=O)(=O)N2CCC[C@H]2C(=O)Nc2ccccc2Cl)cc1`, the kinetic solubility (as a rule, solubility judged after dilution from a stock solution rather than from solid) came to 17.4 µg/mL (≈ 45.9 µM).
In the case of `O=C(Cc1ccccc1F)Nc1ccc2c(c1)CCC2`, the solubility (kinetic) was 4.7 µg/mL (≈ 17.5 µM).
Under `Cc1ccc(N(CC(=O)N2CCc3ccccc3C2)S(C)(=O)=O)cc1` stands greater than 53.8 µg/mL; under `CC(C)CN(C(=O)c1ccco1)c1nc2ccccc2s1`, 2.2 µg/mL (≈ 7.32 µM); under `Cc1ccc(C(=O)CCC(=O)Nc2ccc(C)cn2)cc1`, 3.4 µg/mL (≈ 12 µM).
For `CCN1C(=O)N(CC)C2C1N(CO)C(=O)N2CO` (stereo unspecified), the kinetic solubility was greater than 38.7 µg/mL.
Regarding `CN1CCN(C(=O)CC2(CC(=O)O)CCCC2)CC1.Cl`, the kinetic solubility was greater than 45.7 µg/mL.
Then `O=C(COC(=O)c1ccc(Br)o1)Nc1ccc(F)cc1[N+](=O)[O-]`, with 8.2 µg/mL (≈ 21.2 µM); and `O=C(O)[C@@H]1CCCN1C(=O)COc1ccc2c3c(c(=O)oc2c1)CCC3`, with greater than 53.6 µg/mL.
The compound `Cc1occc1C(=O)N(C)Cc1nc(-c2ccccc2)no1` returned a kinetic solubility of 40.9 µg/mL (≈ 138 µM).
On to `CC12C(=O)N(c3ccccc3)C(=O)C1C(c1ccccc1)N1CCCN12` (stereo unspecified), for which the kinetic solubility is greater than 52.1 µg/mL.
Then `COc1ccccc1-c1nc2ccc(Cl)cc2c(=O)n1O`, with greater than 45.4 µg/mL.
Under `CC1CCCCC1NCC(=O)Nc1ccccc1C(=O)Nc1ccccc1` (stereo unspecified) stands 4 µg/mL (≈ 10.9 µM).
The compound `CCC1CCC2(CC1)NC(=O)N(CC(=O)NCc1ccc(Cl)cc1)C2=O` (stereo unspecified) showed a solubility (kinetic) of 3.7 µg/mL (≈ 9.79 µM).
Under `CC(=O)c1ccc(N=C2C(=O)Nc3ccccc32)cc1` stands 36.6 µg/mL (≈ 138 µM); under `Cc1cc(S(=O)(=O)Nc2nc(CN3CCOCC3)nc3sc4c(c23)CCC4)ccc1F`, 67.4 µg/mL (≈ 146 µM); under `CCOc1ccc(-c2nc(N)ncc2-c2ccccc2OC)c(O)c1`, 1.3 µg/mL (≈ 3.85 µM).
Under `COc1ccc(-n2nc(C(=O)N(C)C)nc2-c2ccccc2)cc1` stands greater than 48.4 µg/mL; under `CC1CC(C)(C)NC(=S)N1CCCC(=O)Nc1ccccc1F` (stereo unspecified), greater than 50.6 µg/mL.
Under `COc1ccccc1CCC(=O)Oc1ccc(C#N)cc1OC` stands 9.5 µg/mL (≈ 30.5 µM).
The compound `COc1ccc(NC(=O)CCC(=O)NCc2ccco2)c([N+](=O)[O-])c1` gave a kinetic solubility greater than 52.1 µg/mL.
Then `CCCCc1ccc(NC(=O)N[C@@H](C)C(=O)O)cc1`, with greater than 39.6 µg/mL; and `CCN(CC)c1ccc(Nc2nc(Cl)ncc2Br)cc1`, with 12.8 µg/mL (≈ 36 µM).
For `O=C(COC(=O)CNC(=O)C1CCCCC1)Nc1ccccc1`, the solubility (kinetic) is greater than 47.8 µg/mL.
The compound `CCOC(=O)c1ccc(NC(=O)N2C[C@@H]3C[C@@H](C2)c2cccc(=O)n2C3)cc1` returned a solubility (kinetic) greater than 57.2 µg/mL.
Turning to `COc1cc(CN2CCCCCC2)cc(Br)c1O`, the solubility (kinetic) is 39.6 µg/mL (≈ 126 µM).
Then `COc1ccccc1OCC(=O)Nc1ccc2c(c1)OCO2`, with 40.9 µg/mL (≈ 136 µM); and `CC(C)(C)NC(=O)CN(C(=O)C1CSC(=O)C1)c1ccccc1F` (stereo unspecified), with 33.3 µg/mL (≈ 94.5 µM); and `CC1CCCC(NC(=O)COC(=O)COc2ccc(Br)cc2)C1C` (stereo unspecified), with 11.6 µg/mL (≈ 29.1 µM).
Then `Cc1ccc(CNC(=O)C2CC(=O)N(C3CCCCCC3)C2)cc1` (stereo unspecified), with 48.8 µg/mL (≈ 149 µM); and `CN(C(=O)Cn1cc([N+](=O)[O-])ccc1=O)C1CCCCC1`, with 41.7 µg/mL (≈ 142 µM).
Regarding `CCc1ccc2nc(Nc3ncc(C(C)=O)c(C)n3)nc(C)c2c1`, the solubility (kinetic) came out at 6.9 µg/mL (≈ 21.5 µM).
`O=C(OCCN=C1NS(=O)(=O)c2ccccc21)c1ccccc1F`: the solubility (kinetic) was determined as 5.7 µg/mL (≈ 16.4 µM). The solubility kinetic values of the last two compounds are within 1.5-fold of each other.
Under `NC(=O)c1ccc(=O)n(Cc2ccc(F)c(F)c2)c1` stands greater than 39.6 µg/mL.
Then `Brc1ccccc1C1Nc2cccc3cccc(c23)N1`, with 2.8 µg/mL (≈ 8.61 µM).
On to `Cc1cc(Cl)ccc1OCC(=O)Nc1ccc(CN2CCOCC2)cc1`, for which the kinetic solubility came out at 41.3 µg/mL (≈ 110 µM). This solubility kinetic is about 15-fold higher than that of the compound before.
Then `Cc1ccc(N2C(=S)NC3c4ccccc4OC2(C)C3C(=O)N(C)C)cc1` (stereo unspecified), with 50.9 µg/mL (≈ 133 µM); and `COc1ccc(CCNC(=O)/C=C/c2ccco2)cc1OC`, with greater than 45.2 µg/mL.
In turn, `Cc1ccnc(NC(=O)CNC(=O)c2ccccc2Br)c1` had a solubility (kinetic) of 48.5 µg/mL (≈ 139 µM).
Then `Cc1ccc(NC(=S)NCC(O)c2ccccc2)c(C)c1` (stereo unspecified), with 44.3 µg/mL (≈ 147 µM); and `CCN(CC)CCNC(=O)COc1ccc(OC)cc1`, with 32 µg/mL (≈ 114 µM).
Under `Cl.O=C(Nc1ccccc1)N1CCNCC1` stands 30.6 µg/mL.
Under `Cl.c1cncc(CNc2ncnc3sc4c(c23)CCC4)c1` stands 7.5 µg/mL; under `COc1ccc(OCCN2CCOCC2)cc1`, 30.9 µg/mL (≈ 130 µM).
For the compound `Cc1ccc(C(=O)C(C)OC(=O)Cn2c(C)csc2=O)cc1` (stereo unspecified), the kinetic solubility was greater than 47.9 µg/mL.
Then `O=C(Cn1c(=S)[nH]c2ccccc2c1=O)N1CCc2ccccc2C1`, with 3.9 µg/mL (≈ 11.1 µM).
Consider `O=C(Nc1nc2ccccc2[nH]1)C1CCCC1`, for which the solubility (kinetic) was 4 µg/mL (≈ 17.4 µM).
In turn, `O=C(CSc1nc(-c2ccccc2)cc(=O)[nH]1)Nc1ccccc1F` came in with a solubility (kinetic) of less than 0.2 µg/mL.
Then `Cc1cccc2cc(COC(=O)c3cccc([N+](=O)[O-])c3)c(=O)[nH]c12`, with 1.5 µg/mL (≈ 4.43 µM); and `CCCn1c(N)c(N2CCCCC2)c(=O)n(CC(=O)Nc2cccc(S(=O)(=O)N(C)C)c2)c1=O`, with 68.3 µg/mL (≈ 139 µM); and `CCc1cccc(C)c1N1C(=O)CN(Cc2ccccc2)C1=S`, with 12.1 µg/mL (≈ 37.3 µM).

The values above are taken from PubChem BioAssay AID1996.
